Data: paper PMC6143625, “A high throughput screen for next-generation leads targeting malaria parasite transmission” (Nature Communications, 2018)
Where two headings read alike, the source gives them in different places.

Columns and labels:
[1] = system: P. falciparum 3D7 asexual blood stages; assay: Whole-cell time extended asexual growth assay (pLDH); format: cell-based; conditions: Plasmodium falciparum, 72 h; for IC50: dose response retest, read-out: IC50 (µM) Asex stages; for inhibition at 2 µM: primary screen, read-out: %Inh Asex stages @2uM
Protocol: Asexual activity was assayed via Plasmodium lactate dehydrogenase activity (pLDH), a surrogate of asexual parasite growth. […] 2 µM artesunate and DMSO were used as the positive and negative controls, respectively. […] After plate mixing, NBT reduction was measured by absorbance at 650 nm using Envision (Perkin Elmer).

HepG2 human cells = system: HepG2 human cells; set-up: method as in http://dx.doi.org/10.6019/CHEMBL3507680; conditions: ref http://dx.doi.org/10.6019/CHEMBL3507680; cited from earlier work
[2] = system: P. falciparum stage V female gametocytes (female gamete formation); assay: P. falciparum dual gamete formation assay (Pf DGFA), female readout (Pfs25 expression), 48 h carry-over format; format: cell-based, Plasmodium falciparum NF54; conditions: for IC50 / inhibition at 2 µM: Plasmodium falciparum; for IC50: read-out: Female IC50; for inhibition at 2 µM / %Inhibition Female @2uM: primary screen, single replicate
[3] = system: P. falciparum stage V male gametocytes (male gamete formation); assay: P. falciparum dual gamete formation assay (Pf DGFA), male readout (exflagellation), 48 h carry-over format; format: cell-based, Plasmodium falciparum NF54; conditions: for IC50 / inhibition at 2 µM: Plasmodium falciparum; for IC50: read-out: Male IC50; for inhibition at 2 µM / %Inhibition Male @2uM: primary screen, single replicate
[4] = 48 h, dose response retest of primary hits, 48 h incubation

IC50 [1] [µM]	SMILES	inhibition at 2 µM [1] [%]	%Inh HepG2 @10uM (HepG2 human cells) [%]	other results
1.48	COc1ccc(N2CCCC3(C2)CN(c2nncs2)CCO3)cc1 (stereo not drawn) [DDD01034473]	87.8	1.09	
5.98	Cc1[nH]/c(=N\C(=O)c2csc(NC3CCCC3)n2)sc1C [DDD01035522]	32.6	31.16	
3.12	I.c1ccc(Sc2ccc3c(c2)OCO3)c(CNC2=NCCN2)c1 [DDD01035544]	30.4	-0.79	
9.35	CC(C)c1nnc2ccc(N3CCC(C(=O)Nc4nccs4)CC3)nn12 [DDD01036018]	30.4	10.73	
3.65	O=C(Nc1cnn(COc2ccc(F)cc2Cl)c1)C1CC1 [DDD01037427]	46.4	9.89	
1.88	CCN(CC)c1nc(Nc2cccc(C(C)O)c2)nc2ccccc12 (stereo not drawn) [DDD01037966]	44.9	65.01	
1.67	CC(O)c1cccc(Nc2nc(NCCO)c3ccccc3n2)c1 (stereo not drawn) [DDD01037968]	41.9	-5.65	
2.29	Oc1ccc(Cl)cc1CNCc1ccccc1Cl [DDD01038243]	49.1	-8.63	
1.69	Oc1ccc(Cl)cc1CNCc1cccc(C(F)(F)F)c1 [DDD01038245]	52.7	-12.90	
1.52	Cc1ccccc1CNCc1cc(Cl)ccc1O [DDD01038246]	53.9	-11.50	
3.16	COc1cccc(CNCc2cccc(Cl)c2)c1O [DDD01038248]	33.1	-4.96	
1.59	COc1cccc(CNCc2ccc(F)c(Cl)c2)c1O [DDD01038250]	68.7	27.04	
6.14	COCCCNC(=O)c1cc(C(C)C)nc(N2CCCCCC2)n1 [DDD01038653]	40.6	-8.22	
3.8	Cc1nn(C)c(C)c1CCn1cncc1-c1ccc2c(c1)CC(C)N2C.Cl (stereo not drawn) [DDD01056530]	51	4.43	
1.46	Cc1cccc(C)c1Nc1noc2c1CN(C(=O)c1ccnn1C)CC2 [DDD01056796]	68.6	69.80	
1.55	Cc1cccc(C)c1Nc1noc2c1CN(C(=O)c1cn(C)cn1)CC2 [DDD01056797]	81.2	75.15	
2	Cc1cccc(C)c1Nc1noc2c1CN(C(=O)c1ccn(C)n1)CC2 [DDD01057030]	47.3	46.43	
1.85	CCCNc1cc(-c2c[nH]nc2C2CCN(C(=O)C3CCC3)C2)ccn1 (stereo not drawn) [DDD01057089]	43.4	96.64	

The remaining lines, values behind:

SMILES	IC50 [1] [µM]	inhibition at 2 µM [1] [%]	%Inh HepG2 @10uM (HepG2 human cells) [%]	other results
COc1cc(CNCC(O)c2ccc(F)c(F)c2)cc2c1OCO2 (stereo not drawn) [DDD00408586]	3	56.7	29.87	
CCCc1nc2c(c(C)c(C)n2CCN(C)C)c(N)c1CC [DDD01026700]	5.25	39.3	3.64	
CCc1c(-c2ccccc2)nc2c(c(C)c(C)n2CCN(C)C)c1N [DDD01026714]	3.31	48.1	15.22	
Cc1c(-c2ccccc2)nc2c(c(C)c(C)n2CCN(C)C)c1N [DDD01026725]	4.49	46.1	13.65	
CC(C)n1ncc2c1NC(=O)CC21C(=O)Nc2c(Cl)ccc(Cl)c21 (stereo not drawn) [DDD01027128]	2.18	96.3	-12.20	
O=C(CN1CC(c2nc(C3CC3)no2)C1)N1CCOCC1.O=C(O)C(=O)O [DDD01027902]			-17.5	IC50 [2, 4]: 5.81 µM; inhibition at 2 µM ([2]; 48 h incubation): < 30%; IC50 [3, 4]: 1.18 µM; inhibition at 2 µM ([3]; 48 h incubation): 52.5%
CC(C)Nc1nc2c(c(NC3CC3)n1)CCN(C1CCOCC1)CC2 [DDD01029612]	3.54	33.7	-3.76	
CC(C)Nc1nc2c(c(NC3CC3)n1)CN(C(=O)Cc1ccsc1)CC2 [DDD01029980]	2.5	33.2	3.26	
CC(C)Nc1nc2c(c(NC3CC3)n1)CN(C(=O)c1ccsc1)CC2 [DDD01030030]	1.15	58.7	-17.20	
COc1ccc(CN2CCc3c(CNC(=O)CC#N)nn(C)c3C2)cc1.O=C(O)C(F)(F)F.O=C(O)C(F)(F)F [DDD01030619]			-1.4	IC50 [2, 4]: > 10 µM; inhibition at 2 µM ([2]; 48 h incubation): < 30%; IC50 [3, 4]: 1.34 µM; inhibition at 2 µM ([3]; 48 h incubation): 59.5%
c1cncc(-c2ccc3c(c2)CCC32CCNCC2)c1 [DDD01031368]	3.86	38.8	17.78	
Cc1nnc(N2CC[C@@H](OCC3CC3)[C@@H](Cc3ccccc3)C2)s1.O=C(O)C(F)(F)F [DDD01032950]	2.17	45.4	-7.86	
CN(Cc1ccco1)C[C@H]1OC[C@@H]2CCN(Cc3ccccn3)C[C@@H]21.O=C(O)C(F)(F)F.O=C(O)C(F)(F)F.O=C(O)C(F)(F)F [DDD01033585]	2.59	41	-8.48	
COc1cccc(C2SCC(=O)Nc3ccsc32)c1OC (stereo not drawn) [DDD01034924]	5.19	33.1	1.70	
COc1ccc(CNC(Cc2ccsc2)c2ccc(C)cn2)c(OC)c1 (stereo not drawn) [DDD01058868]			85.33	IC50 [2, 4]: 5.3 µM; inhibition at 2 µM ([2]; 48 h incubation): 30.8%; IC50 [3, 4]: > 10 µM; inhibition at 2 µM ([3]; 48 h incubation): < 30%
Cc1cccnc1CN1CC[C@H](Oc2cccc(F)c2)[C@@](C)(O)C1 [DDD01060871]			-0.828	IC50 [2, 4]: 6.07 µM; inhibition at 2 µM ([2]; 48 h incubation): 32.8%; IC50 [3, 4]: > 10 µM; inhibition at 2 µM ([3]; 48 h incubation): < 30%
CC(NCC1CCN(CCO)CC1)c1ccc(C(F)(F)F)cc1 (stereo not drawn) [DDD01073719]			14.02	IC50 [2, 4]: > 10 µM; inhibition at 2 µM ([2]; 48 h incubation): < 30%; IC50 [3, 4]: 7.83 µM; inhibition at 2 µM ([3]; 48 h incubation): 34.8%
O=C(C1CC2(CCNCC2)CN1)N1CCN(c2cccc(Cl)c2Cl)CC1 (stereo not drawn) [DDD01243908]			-1.58	IC50 [2, 4]: 4.79 µM; inhibition at 2 µM ([2]; 48 h incubation): < 30%; IC50 [3, 4]: 4.28 µM; inhibition at 2 µM ([3]; 48 h incubation): 65.7%
Cc1nc(C)n(CC2CCCN(CCOc3cccc(C#N)c3)C2)n1 (stereo not drawn) [DDD01302568]				%Inhibition Female @2uM ([2]; 48 h incubation): <30%; %Inhibition Male @2uM ([3]; 48 h incubation): 85.34%
CCC(NC(=O)c1ccco1)c1ccccc1OCC(=O)N1CCCC1 (stereo not drawn) [DDD01302666]				%Inhibition Female @2uM ([2]; 48 h incubation): <30%; %Inhibition Male @2uM ([3]; 48 h incubation): 33.09%
CC(C)CCN(C)C(=O)c1nc(S(C)(=O)=O)n2ccccc12 [DDD01302801]				%Inhibition Female @2uM ([2]; 48 h incubation): <30%; %Inhibition Male @2uM ([3]; 48 h incubation): 31.11%
COc1ccc(NC(=O)c2ccc(-n3ncc(C#N)c3N)cc2)cn1 [DDD01303472]			3.50	
O=C(NCC1(O)CCOc2ccccc21)c1ccc(Br)s1 (stereo not drawn) [OJF-034]				IC50 ([2]; SAR, Fig. 7): > 25 µM; IC50 ([3]; SAR, Fig. 6 and Fig. 7): > 25 µM
